# Measurements from paper PMC11491004, “CHF6523 data suggest that the phosphoinositide 3-kinase delta isoform is not a suitable target for the management of COPD” (Respiratory Research, 2024).
# Experiments:
# sputum cell counts = assay: Cell count in induced sputum; assay type: in vivo, human; conditions: p < 0.05
# Method: All assessment timings were based on the morning dose. Pre-dose on Days 1 and 28 of each treatment period, blood samples were taken for pharmacokinetic analyses, followed by forced oscillation (including slow vital capacity manoeuvres for inspiratory capacity [IC] and vital capacity [VC]), spirometry (forced expiratory volume in 1 s [FEV1] and forced vital capacity [FVC]), and the COPD Assessment Test (CAT). Blood samples were also taken up to 12 h post-dose on Days 1 and 28 for pharmacokinetic analyses, with blood samples for biomarker assessment pre-dose on Day 1 and 2 h post-dose on Day 28, and spirometry pre-dose on Days 20 and 24. […]
# Fold-change from baseline in cell counts, target biomarkers in sputum and blood, and PIP3 were log-transformed and analysed using an analysis of covariance (ANCOVA) model, with treatment, patient, and period as fixed effects, and baseline value as covariate. Changes from baseline in spirometry, forced oscillation and CAT endpoints were analysed using a similar ANCOVA model, but without log transformation. Rescue medication data were analysed using an analysis of variance model, including treatment, period and patient as fixed effects. […]
# To induce sputum, patients with FEV1 ≥0.8 L inhaled nebulised hypertonic saline at increasing concentrations (3%, then 4% and finally 5%), with FEV1 monitored for safety after each concentration. […]
# [1] = Forced oscillation and slow vital capacity manoeuvres; assay type: in vivo, human; conditions: Day 28
# Method: (§1) All assessment timings were based on the morning dose. Pre-dose on Days 1 and 28 of each treatment period, blood samples were taken for pharmacokinetic analyses, followed by forced oscillation (including slow vital capacity manoeuvres for inspiratory capacity [IC] and vital capacity [VC]), spirometry (forced expiratory volume in 1 s [FEV1] and forced vital capacity [FVC]), and the COPD Assessment Test (CAT). Blood samples were also taken up to 12 h post-dose on Days 1 and 28 for pharmacokinetic analyses, with blood samples for biomarker assessment pre-dose on Day 1 and 2 h post-dose on Day 28, and spirometry pre-dose on Days 20 and 24. Sputum was induced prior to each treatment period for baseline determination of biomarkers, and post-dose on Day 20 for collection of phosphatidylinositol (3,4,5)-trisphosphate (PIP3), and on Days 24 and 28 for collection of biomarkers.
# (§2) Fold-change from baseline in cell counts, target biomarkers in sputum and blood, and PIP3 were log-transformed and analysed using an analysis of covariance (ANCOVA) model, with treatment, patient, and period as fixed effects, and baseline value as covariate. Changes from baseline in spirometry, forced oscillation and CAT endpoints were analysed using a similar ANCOVA model, but without log transformation. Rescue medication data were analysed using an analysis of variance model, including treatment, period and patient as fixed effects. Other data, including the proportion of days on which patients coughed and the cough VAS results, are presented descriptively only. Further details, including the transcriptomics, mass-spectrometry and Olink proteomics, bioinformatics and multi-omic data integration are in the supplement.
# The Resmon PRO FULL device (MGC Diagnostics/Medisoft, St Paul, MN, USA) was used to evaluate the forced oscillometry endpoints. Patients in a sitting position and with their nose clipped supported their cheeks to reduce upper airway shunting while small amplitude pressure stimuli were applied during tidal breathing, with each manoeuvre performed in triplicate. The response of the respiratory system to this stimulation was used to derive respiratory mechanical impedance (Zrs), which comprises resistance (Rrs) and reactance (Xrs). In addition, the small amplitude pressure stimuli was also applied during execution of an expiratory slow vital capacity manoeuvre (SVC) to record inspiratory capacity (IC) and vital capacity (VC).
# Central and peripheral airway mechanics were measured using a multi frequency stimulating waveform at 5, 11, and 19 Hz, to derive the following: […]
# [2] = COPD Assessment Test and rescue medication use; assay type: in vivo, human
# Method: as §1, §2
# [3] = Cough episodes: daily diary and visual analogue scale; assay type: in vivo, human; conditions: for Mean cough VAS score (95% CI): VAS 100 mm, 0 no cough, 100 worst cough ever
# Method: as §2
# PI3Kδ = PI3Kδ (Homo sapiens, UniProt O00329); assay: Target engagement: PIP3 in induced sputum; assay type: in vivo; set-up: from tissue; host or cells: induced sputum of COPD patients (in vivo dosing by inhalation)
# Method: as §1, §2
# Sequence of PI3Kδ (O00329 whole entry): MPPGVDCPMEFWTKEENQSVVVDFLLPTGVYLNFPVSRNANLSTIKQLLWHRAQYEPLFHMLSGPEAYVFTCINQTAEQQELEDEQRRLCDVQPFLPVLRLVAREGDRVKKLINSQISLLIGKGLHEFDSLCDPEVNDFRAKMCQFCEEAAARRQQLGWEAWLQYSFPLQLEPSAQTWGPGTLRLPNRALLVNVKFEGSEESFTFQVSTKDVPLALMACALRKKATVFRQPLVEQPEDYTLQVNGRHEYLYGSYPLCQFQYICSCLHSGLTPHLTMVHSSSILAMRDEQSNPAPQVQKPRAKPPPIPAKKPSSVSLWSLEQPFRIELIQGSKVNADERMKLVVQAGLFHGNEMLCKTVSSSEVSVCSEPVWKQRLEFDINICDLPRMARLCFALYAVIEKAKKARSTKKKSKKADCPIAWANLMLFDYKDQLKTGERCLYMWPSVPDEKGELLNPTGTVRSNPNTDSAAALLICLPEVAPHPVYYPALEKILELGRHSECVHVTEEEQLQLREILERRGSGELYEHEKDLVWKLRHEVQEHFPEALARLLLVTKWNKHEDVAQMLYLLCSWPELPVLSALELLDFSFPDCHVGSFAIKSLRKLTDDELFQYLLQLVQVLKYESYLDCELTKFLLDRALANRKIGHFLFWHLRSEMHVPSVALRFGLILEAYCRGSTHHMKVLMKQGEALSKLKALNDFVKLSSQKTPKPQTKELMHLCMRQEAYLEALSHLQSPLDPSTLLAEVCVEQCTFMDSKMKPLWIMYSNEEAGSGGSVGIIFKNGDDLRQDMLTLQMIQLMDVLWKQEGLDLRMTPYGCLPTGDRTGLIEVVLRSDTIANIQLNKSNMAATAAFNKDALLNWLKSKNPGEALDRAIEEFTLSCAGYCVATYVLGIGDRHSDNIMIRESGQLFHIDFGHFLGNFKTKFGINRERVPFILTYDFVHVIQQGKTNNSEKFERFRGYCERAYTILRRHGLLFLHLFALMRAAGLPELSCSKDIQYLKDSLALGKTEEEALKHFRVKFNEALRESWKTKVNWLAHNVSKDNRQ
# Sequence of PI3Kδ (P27986 whole entry partner): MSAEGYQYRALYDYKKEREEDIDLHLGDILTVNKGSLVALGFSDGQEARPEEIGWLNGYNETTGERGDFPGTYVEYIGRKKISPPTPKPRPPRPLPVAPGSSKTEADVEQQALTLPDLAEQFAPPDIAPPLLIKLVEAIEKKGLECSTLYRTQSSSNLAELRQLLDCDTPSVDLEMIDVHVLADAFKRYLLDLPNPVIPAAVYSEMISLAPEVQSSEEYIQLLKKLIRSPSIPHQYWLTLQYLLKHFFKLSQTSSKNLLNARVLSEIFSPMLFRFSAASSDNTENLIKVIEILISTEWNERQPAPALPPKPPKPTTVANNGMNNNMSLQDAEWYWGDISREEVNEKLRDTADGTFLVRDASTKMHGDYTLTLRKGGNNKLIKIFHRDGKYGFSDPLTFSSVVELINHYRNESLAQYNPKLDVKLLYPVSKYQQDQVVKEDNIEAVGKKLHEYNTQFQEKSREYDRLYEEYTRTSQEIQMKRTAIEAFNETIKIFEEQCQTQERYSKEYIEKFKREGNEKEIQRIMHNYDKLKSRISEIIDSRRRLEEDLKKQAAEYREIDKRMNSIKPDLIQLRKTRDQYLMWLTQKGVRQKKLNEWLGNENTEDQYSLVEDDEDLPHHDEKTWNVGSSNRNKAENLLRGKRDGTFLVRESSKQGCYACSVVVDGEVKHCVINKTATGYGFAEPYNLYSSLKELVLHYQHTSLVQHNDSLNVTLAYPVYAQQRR
smiles,measurement,setting,value
C[C@@H](c1oc(=O)c2ccccc2c1-c1cccc(CN2CCN(C)CC2)c1)n1nc(-c2cncc(O)c2)c2c(N)ncnc21 [CHF6523],CHF6523–placebo differences in sputum cell counts,sputum cell counts,no statistically significant
same,"Breaths where expiratory flow limitation was present, adjusted mean change from baseline (95% CI)",[1],"4.960 (–2.008, 11.928) %"
same,"Breaths where expiratory flow limitation was present, adjusted mean difference CHF6523 vs placebo (95% CI)",[1],"6.482 (–3.182, 16.145); p=0.179%"
same,"Inspiratory capacity, adjusted mean change from baseline (95% CI)",[1],"–0.175 (–0.264, –0.085) (N=26) L"
same,"Inspiratory capacity, adjusted mean difference CHF6523 vs placebo (95% CI)",[1],"–0.062 (–0.191, 0.066); p=0.320 L"
same,"Mean inspiratory flow, adjusted mean change from baseline (95% CI)",[1],"0.023 (0.006, 0.041) L/sec"
same,"Reactance at 5 Hz, expiratory, adjusted mean change from baseline (95% CI)",[1],"–0.336 (–0.801, 0.130) cmH2O/L/sec"
same,"Reactance at 5 Hz, expiratory, adjusted mean difference CHF6523 vs placebo (95% CI)",[1],"–0.284 (–0.919, 0.351); p=0.365 cmH2O/L/sec"
same,"Reactance at 5 Hz, inspiratory, adjusted mean change from baseline (95% CI)",[1],"–0.119 (–0.307, 0.068) cmH2O/L/sec"
same,"Reactance at 5 Hz, inspiratory, adjusted mean difference CHF6523 vs placebo (95% CI)",[1],"–0.141 (–0.399, 0.117); p=0.272 cmH2O/L/sec"
same,"Reactance at 5 Hz, total, adjusted mean change from baseline (95% CI)",[1],"–0.263 (–0.623, 0.097) cmH2O/L/sec"
same,"Reactance at 5 Hz, total, adjusted mean difference CHF6523 vs placebo (95% CI)",[1],"–0.237 (–0.729, 0.256); p=0.332 cmH2O/L/sec"
same,"Reactance at 19 Hz, expiratory, adjusted mean change from baseline (95% CI)",[1],"–0.025 (–0.226, 0.177) cmH2O/L/sec"
same,"Reactance at 19 Hz, expiratory, adjusted mean difference CHF6523 vs placebo (95% CI)",[1],"0.079 (–0.198, 0.357); p=0.563 cmH2O/L/sec"
same,"Reactance at 19 Hz, inspiratory, adjusted mean change from baseline (95% CI)",[1],"–0.113 (–0.257, 0.031) cmH2O/L/sec"
same,"Reactance at 19 Hz, inspiratory, adjusted mean difference CHF6523 vs placebo (95% CI)",[1],"–0.072 (–0.270, 0.127); p=0.464 cmH2O/L/sec"
same,"Reactance at 19 Hz, total, adjusted mean change from baseline (95% CI)",[1],"–0.058 (–0.229, 0.112) cmH2O/L/sec"
same,"Reactance at 19 Hz, total, adjusted mean difference CHF6523 vs placebo (95% CI)",[1],"0.027 (–0.208, 0.262); p=0.814 cmH2O/L/sec"
same,"Resistance at 5 Hz minus resistance at 19 Hz, expiratory, adjusted mean change from baseline (95% CI)",[1],"0.112 (–0.080, 0.305) cmH2O/L/sec"
same,"Resistance at 5 Hz minus resistance at 19 Hz, expiratory, adjusted mean difference CHF6523 vs placebo (95% CI)",[1],"–0.112 (–0.377, 0.153); p=0.392 cmH2O/L/sec"
same,"Resistance at 5 Hz minus resistance at 19 Hz, inspiratory, adjusted mean change from baseline (95% CI)",[1],"0.198 (0.075, 0.321) cmH2O/L/sec"
same,"Resistance at 5 Hz minus resistance at 19 Hz, inspiratory, adjusted mean difference CHF6523 vs placebo (95% CI)",[1],"0.147 (–0.022, 0.317); p=0.085 cmH2O/L/sec"
same,"Resistance at 5 Hz minus resistance at 19 Hz, total, adjusted mean change from baseline (95% CI)",[1],"0.158 (0.018, 0.299) cmH2O/L/sec"
same,"Resistance at 5 Hz minus resistance at 19 Hz, total, adjusted mean difference CHF6523 vs placebo (95% CI)",[1],"–0.008 (–0.203, 0.186); p=0.929 cmH2O/L/sec"
same,"Resistance at 5 Hz, expiratory, adjusted mean change from baseline (95% CI)",[1],"0.112 (–0.149, 0.373) cmH2O/L/sec"
same,"Resistance at 5 Hz, expiratory, adjusted mean difference CHF6523 vs placebo (95% CI)",[1],"–0.118 (–0.485, 0.248); p=0.513 cmH2O/L/sec"
same,"Resistance at 5 Hz, inspiratory, adjusted mean change from baseline (95% CI)",[1],"0.216 (0.066, 0.366) cmH2O/L/sec"
same,"Resistance at 5 Hz, inspiratory, adjusted mean difference CHF6523 vs placebo (95% CI)",[1],"0.057 (–0.150, 0.264); p=0.574 cmH2O/L/sec"
same,"Resistance at 5 Hz, total, adjusted mean change from baseline (95% CI)",[1],"0.172 (–0.013, 0.356) cmH2O/L/sec"
same,"Resistance at 5 Hz, total, adjusted mean difference CHF6523 vs placebo (95% CI)",[1],"–0.051 (–0.309, 0.207); p=0.686 cmH2O/L/sec"
same,"Resistance at 19 Hz, expiratory, adjusted mean change from baseline (95% CI)",[1],"–0.002 (–0.179, 0.176) cmH2O/L/sec"
same,"Resistance at 19 Hz, expiratory, adjusted mean difference CHF6523 vs placebo (95% CI)",[1],"–0.009 (–0.261, 0.242); p=0.939 cmH2O/L/sec"
same,"Resistance at 19 Hz, inspiratory, adjusted mean change from baseline (95% CI)",[1],"0.021 (–0.094, 0.136) cmH2O/L/sec"
same,"Resistance at 19 Hz, inspiratory, adjusted mean difference CHF6523 vs placebo (95% CI)",[1],"–0.086 (–0.245, 0.072); p=0.272 cmH2O/L/sec"
same,"Resistance at 19 Hz, total, adjusted mean change from baseline (95% CI)",[1],"0.016 (–0.125, 0.156) cmH2O/L/sec"
same,"Resistance at 19 Hz, total, adjusted mean difference CHF6523 vs placebo (95% CI)",[1],"–0.040 (–0.236, 0.157); p=0.683 cmH2O/L/sec"
same,"Resonance frequency, adjusted mean change from baseline (95% CI)",[1],"0.167 (–0.960, 1.293) Hz"
same,"Resonance frequency, adjusted mean difference CHF6523 vs placebo (95% CI)",[1],"0.106 (–1.434, 1.646); 0.888 Hz"
same,"Respiratory rate, adjusted mean change from baseline (95% CI)",[1],"0.268 (–0.359, 0.895) breaths/min"
same,"Respiratory rate, adjusted mean difference CHF6523 vs placebo (95% CI)",[1],"0.784 (–0.078, 1.646); 0.073 breaths/min"
same,"Tidal expiratory flow limitation, adjusted mean change from baseline (95% CI)",[1],"0.214 (–0.130, 0.557) cmH2O/L/sec"
same,"Tidal expiratory flow limitation, adjusted mean difference CHF6523 vs placebo (95% CI)",[1],"0.111 (–0.359, 0.582); p=0.630 cmH2O/L/sec"
same,"Tidal volume, adjusted mean change from baseline (95% CI)",[1],"0.003 (–0.029, 0.036) L"
same,"Tidal volume, adjusted mean difference CHF6523 vs placebo (95% CI)",[1],"0.011 (–0.034, 0.056); p=0.620 L"
same,"Vital capacity, adjusted mean change from baseline (95% CI)",[1],"–0.083 (–0.243, 0.076) (N=26) L"
same,"Vital capacity, adjusted mean difference CHF6523 vs placebo (95% CI)",[1],"–0.018 (–0.243, 0.207); p=0.871 L"
same,CHF6523–placebo difference in inspiratory flow,[1]; p=0.015,29 mL/s
same,"Mean inspiratory flow, adjusted mean difference CHF6523 vs placebo (95% CI)",[1]; p=0.015,"0.029 (0.006, 0.052); p=0.015 L/sec"
same,"Rescue medication use, adjusted mean (95% CI)",[2]; 28-day treatment period,"1.69 (1.40, 1.99) Puffs/day"
same,"Rescue medication use, adjusted mean difference CHF6523 vs placebo (95% CI)",[2]; 28-day treatment period,"0.28 (–0.14, 0.70); p=0.190 Puffs/day"
same,"Rescue medication use: days with no use, adjusted mean (95% CI)",[2]; 28-day treatment period,"49.0 (40.3, 57.7) %"
same,"Rescue medication use: days with no use, adjusted mean difference CHF6523 vs placebo (95% CI)",[2]; 28-day treatment period,"–5.7 (–17.9, 6.6); p=0.354%"
same,"COPD Assessment Test total score, adjusted mean difference CHF6523 vs placebo (95% CI)",[2]; Day 28,"0.6 (–0.7, 2.0); p=0.340"
same,"Days on which patients coughed, adjusted mean","[3]; daily diary, 2 mg twice daily inhaled, 95% CI 63.5%, 84.5%",74.0%
same,Mean cough VAS score (95% CI),[3]; evening,"31.3 (22.1, 40.4) mm"
same,Cough events not resolving within 1 h after inhalation,[3]; in vivo,3.2%
same,Mean cough VAS score (95% CI),[3]; morning,"30.3 (95% CI 21.3, 39.3) mm"
same,Sputum PIP3 adjusted geometric mean fold change from baseline [95% CI],PI3Kδ; Day 20,"0.703 [95% CI 0.606, 0.814]"
same,Decrease from baseline in sputum PIP3 levels,"PI3Kδ; Day 20, 2 mg twice daily inhaled",29.7%
same,Sputum PIP3 adjusted ratio CHF6523 vs placebo [95% CI],"PI3Kδ; Day 20, p = 0.001","0.705 [0.580, 0.856]"
same,Sputum PIP3 difference between groups (reduction vs. placebo),"PI3Kδ; Day 20, p = 0.001",29.5%
